Literature values, collected in patent US8329742B2, “Macrocyclic compounds useful as pharmaceuticals” (EISAI Co., Ltd., priority 2002, dated 2012).

Legend:
Map/Erk kinase (MEK) = Map/Erk kinase (MEK) (Homo sapiens, UniProt Q02750)
[1] = susceptible to enone isomerization in mouse and human plasma

Chain of Map/Erk kinase (MEK) (Q02750 whole entry): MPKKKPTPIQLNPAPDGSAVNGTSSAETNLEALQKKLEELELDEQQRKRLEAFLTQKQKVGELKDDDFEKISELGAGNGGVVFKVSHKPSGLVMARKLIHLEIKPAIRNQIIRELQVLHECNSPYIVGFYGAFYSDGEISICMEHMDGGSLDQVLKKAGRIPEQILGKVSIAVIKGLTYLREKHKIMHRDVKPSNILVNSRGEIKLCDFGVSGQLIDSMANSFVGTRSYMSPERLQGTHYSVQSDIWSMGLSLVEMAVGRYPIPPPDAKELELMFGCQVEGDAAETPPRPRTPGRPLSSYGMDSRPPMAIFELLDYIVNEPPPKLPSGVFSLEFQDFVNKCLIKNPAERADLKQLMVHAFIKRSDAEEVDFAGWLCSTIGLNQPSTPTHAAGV

inhibition of Map/Erk kinase (MEK) (Map/Erk kinase (MEK)): inhibit
biological stability [1]: biologically unstable
SMILES: COc1cc(O)c2c(c1)/C=C/C[C@H](O)[C@H](O)C(=O)/C=C\C[C@H](C)OC2=O [Compound F152]
